The target of one test is CDK2/cyclin E (Homo sapiens, UniProt P24941). Nature of the test: Kinase assay, radioactive phosphate incorporation, CDK2/cyclin E. In kind it is biochemical. Particulars: 100 μM ATP, 30° C.; read-out: Kinase inhibition IC50 CDK2/cyclin E. A digest of the protocol:
(§1)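 Recombinant kinase complexes (2-4 μg) with polypeptide substrate were run in pH 7.4 β-glycerophosphate/MOPS buffer, started with 15 mM MgCl2 plus 100 μM ATP including [γ-^32P]-ATP, and incubated at 30° C. Substrate-incorporated ^32P was captured on filter plates, acid-washed and scintillation-counted. Compounds were diluted from DMSO stocks into 10% DMSO buffer.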

The subject of the next test is HT29. The experiment in a line: 72-h MTT cytotoxicity assay, HT29. In kind it is cell-based. Particulars: Homo sapiens, HT-29, read-out: 72-h MTT IC50 HT29, HT29 cell line. In a few lines: (§2)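 Cells were seeded by doubling time and left overnight, then given a 1/3 DMSO dilution series in triplicate for 72 h at 37° C. MTT (5 mg/mL stock) was added for 4 h in the dark. Formazan was dissolved in DMSO for the read-out.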
In general terms: Formazan colour is commonly taken as a measure of viable cells.

For the next test, the target named is CDK4/cyclin D1 (Homo sapiens, UniProt P11802). Nature of the test: Kinase assay, radioactive phosphate incorporation, CDK4/cyclin D1. Particulars: 100 μM ATP, 30° C.; read-out: Kinase inhibition IC50 CDK4/cyclin D1. The test is classed as biochemical. On the procedure: (§3) The compounds from the examples above were investigated for their ability to inhibit the enzymatic activity of various protein kinases. This was achieved by measurement of incorporation of radioactive phosphate from ATP into appropriate polypeptide substrates. Recombinant protein kinases and kinase complexes were produced or obtained commercially. Assays were performed using 96-well plates and appropriate assay buffers (typically 25 mM β-glycerophosphate, 20 mM MOPS, 5 MM EGTA, 1 mM DTT, 1 mM Na3VO3, pH 7.4), into which were added 2-4 μg of active enzyme with appropriate substrates. The reactions were initiated by addition of Mg/ATP mix (15 mM MgCl2+100 μM ATP with 30-50 kBq per well of [γ-^32P]-ATP) and mixtures incubated as required at 30° C. Reactions were stopped on ice, followed by filtration through p81 filterplates or GF/C filterplates (Whatman Polyfiltronics, Kent, UK). After washing 3 times with 75 mM aq orthophosphoric acid, plates were dried, scintillant added and incorporated radioactivity measured in a scintillation counter (TopCount, Packard Instruments, Pangbourne, Berks, UK). Compounds for kinase assay were made up as 10 mM stocks in DMSO and diluted into 10% DMSO in assay buffer.
CDK4/cyclin D1, sequence (P11802 whole entry, species assumed): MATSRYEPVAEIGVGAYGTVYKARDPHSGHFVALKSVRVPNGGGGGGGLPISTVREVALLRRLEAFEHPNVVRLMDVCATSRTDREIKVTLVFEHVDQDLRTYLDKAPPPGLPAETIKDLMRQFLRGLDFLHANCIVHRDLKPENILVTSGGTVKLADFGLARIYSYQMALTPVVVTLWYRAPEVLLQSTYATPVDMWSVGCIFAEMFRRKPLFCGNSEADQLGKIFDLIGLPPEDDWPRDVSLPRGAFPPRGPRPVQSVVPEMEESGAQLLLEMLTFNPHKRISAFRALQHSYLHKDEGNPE
CDK4/cyclin D1, sequence (P24385 whole entry partner, species assumed): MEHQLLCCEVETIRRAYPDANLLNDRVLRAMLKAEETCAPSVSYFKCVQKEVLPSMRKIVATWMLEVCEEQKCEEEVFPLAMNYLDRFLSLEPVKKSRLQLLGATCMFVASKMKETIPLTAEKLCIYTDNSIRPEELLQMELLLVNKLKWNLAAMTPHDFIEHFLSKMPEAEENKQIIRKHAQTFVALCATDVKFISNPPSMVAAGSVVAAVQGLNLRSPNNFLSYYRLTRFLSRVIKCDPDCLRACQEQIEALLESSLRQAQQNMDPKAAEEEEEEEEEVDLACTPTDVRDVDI

Another test relates to A549. Nature of the test: 72-h MTT cytotoxicity assay, A549. The test is classed as cell-based. Particulars: Homo sapiens, read-out: 72-h MTT IC50 A549, A549 cell line. In a few lines:
as §2

The next test relates to Saos-2. Nature of the test: 72-h MTT cytotoxicity assay, Saos-2. The test is classed as cell-based. Particulars: Homo sapiens, read-out: 72-h MTT IC50 Saos-2, Saos-2 cell line. A digest of the protocol:
as §2

A further test addresses CDK1/cyclin B (Homo sapiens, UniProt P06493). The experiment in a line: Kinase assay, radioactive phosphate incorporation, CDK1/cyclin B. The test is classed as biochemical. The following applies: 100 μM ATP, 30° C.; read-out: Kinase inhibition IC50 CDK1/cyclin B. As for the experimental part: as §3
The next test deals with CDK7/cyclin H (Homo sapiens, UniProt P50613). Nature of the test: Kinase assay, radioactive phosphate incorporation, CDK7/cyclin H. The following applies: 100 μM ATP, 30° C.; read-out: Kinase inhibition IC50 CDK7/cyclin H. The test is classed as biochemical. A digest of the protocol:
as §1

For another test, the target named is GSK3β (Homo sapiens, UniProt P49841). Nature of the test: Kinase assay, radioactive phosphate incorporation, GSK3β. The test is classed as biochemical. Particulars: 100 μM ATP, 30° C.; read-out: Kinase inhibition IC50 GSK3β. A digest of the protocol:
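Inhibition is measured as reduced transfer of radioactive phosphate to a polypeptide substrate by 2-4 μg of recombinant enzyme. Mixtures with Mg/ATP (100 μM ATP, 15 mM MgCl2, [γ-32P]-ATP) in pH 7.4 MOPS-based buffer incubate at 30° C, are stopped on ice, filtered and counted.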

The subject of test [1] is transformed human cell lines (A549, HT29, Saos-2). Nature of the test: 72-h MTT cytotoxicity assay, average of cell lines. In kind it is cell-based. The following applies: read-out: 72-h MTT IC50 Average, average of A549, HT29, Saos-2. A digest of the protocol: as §2
For the next test, the target named is CDK2/cyclin A (Homo sapiens, UniProt P24941). Nature of the test: Kinase assay, radioactive phosphate incorporation, CDK2/cyclin A. In kind it is biochemical. The following applies: 100 μM ATP, 30° C.; read-out: Kinase inhibition IC50 CDK2/cyclin A. On the procedure:
as §3

Another test deals with CDK9/cyclin T1 (Homo sapiens, UniProt P50750). The experiment in a line: Kinase assay, radioactive phosphate incorporation, CDK9/cyclin T1. The test is classed as biochemical. Particulars: 100 μM ATP, 30° C.; read-out: Kinase inhibition IC50 CDK9/cyclin T1. In a few lines: as §1
CDK9/cyclin T1, sequence (P50750 whole entry, species assumed): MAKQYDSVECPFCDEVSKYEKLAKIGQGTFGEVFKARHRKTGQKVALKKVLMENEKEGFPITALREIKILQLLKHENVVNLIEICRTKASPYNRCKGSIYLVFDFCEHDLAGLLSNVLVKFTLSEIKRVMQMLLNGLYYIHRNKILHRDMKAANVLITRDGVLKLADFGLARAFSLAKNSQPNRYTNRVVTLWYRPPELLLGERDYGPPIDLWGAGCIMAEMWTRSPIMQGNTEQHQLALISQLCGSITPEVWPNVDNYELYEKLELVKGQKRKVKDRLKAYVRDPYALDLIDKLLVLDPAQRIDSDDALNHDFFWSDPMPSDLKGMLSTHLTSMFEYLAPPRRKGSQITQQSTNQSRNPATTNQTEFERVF
CDK9/cyclin T1, sequence (O60563 whole entry partner, species assumed): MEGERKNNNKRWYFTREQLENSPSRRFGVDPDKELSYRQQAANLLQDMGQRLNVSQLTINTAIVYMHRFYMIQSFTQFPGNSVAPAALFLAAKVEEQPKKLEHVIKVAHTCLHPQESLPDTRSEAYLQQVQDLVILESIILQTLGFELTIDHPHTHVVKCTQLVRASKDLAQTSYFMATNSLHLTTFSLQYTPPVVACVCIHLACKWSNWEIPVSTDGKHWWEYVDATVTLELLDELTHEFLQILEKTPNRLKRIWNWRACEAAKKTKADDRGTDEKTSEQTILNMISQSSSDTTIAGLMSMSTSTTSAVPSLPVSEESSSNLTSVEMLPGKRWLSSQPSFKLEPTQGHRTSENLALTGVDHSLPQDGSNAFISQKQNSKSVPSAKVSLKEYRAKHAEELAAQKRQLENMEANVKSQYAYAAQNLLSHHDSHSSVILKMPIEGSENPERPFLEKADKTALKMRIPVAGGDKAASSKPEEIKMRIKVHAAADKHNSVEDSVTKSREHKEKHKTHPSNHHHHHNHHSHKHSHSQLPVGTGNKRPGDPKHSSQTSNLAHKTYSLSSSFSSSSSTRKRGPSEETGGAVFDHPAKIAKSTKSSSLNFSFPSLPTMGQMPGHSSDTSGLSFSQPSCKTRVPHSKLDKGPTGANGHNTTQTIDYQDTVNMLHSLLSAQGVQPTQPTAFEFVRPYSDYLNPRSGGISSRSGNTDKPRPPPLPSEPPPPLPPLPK

CDK7/cyclin H, sequence (P50613 whole entry, species assumed): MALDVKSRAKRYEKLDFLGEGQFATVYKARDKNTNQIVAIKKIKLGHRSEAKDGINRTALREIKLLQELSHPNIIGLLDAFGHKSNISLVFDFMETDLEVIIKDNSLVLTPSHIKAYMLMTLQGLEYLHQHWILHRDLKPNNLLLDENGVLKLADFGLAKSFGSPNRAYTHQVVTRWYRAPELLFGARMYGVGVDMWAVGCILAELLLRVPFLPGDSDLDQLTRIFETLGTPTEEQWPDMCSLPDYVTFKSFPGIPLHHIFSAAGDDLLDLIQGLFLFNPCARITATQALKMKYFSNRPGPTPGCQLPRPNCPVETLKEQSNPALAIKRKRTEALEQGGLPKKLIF
CDK7/cyclin H, sequence (P51946 whole entry partner, species assumed): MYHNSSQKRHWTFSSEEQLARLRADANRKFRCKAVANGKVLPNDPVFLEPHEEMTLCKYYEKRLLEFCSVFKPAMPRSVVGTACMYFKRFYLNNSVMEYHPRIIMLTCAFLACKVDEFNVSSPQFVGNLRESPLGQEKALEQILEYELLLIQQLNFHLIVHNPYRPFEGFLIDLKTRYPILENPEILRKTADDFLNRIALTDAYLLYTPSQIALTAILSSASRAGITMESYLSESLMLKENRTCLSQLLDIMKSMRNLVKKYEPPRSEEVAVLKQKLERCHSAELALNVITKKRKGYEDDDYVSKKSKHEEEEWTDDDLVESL
GSK3β, sequence (P49841 whole entry, species assumed): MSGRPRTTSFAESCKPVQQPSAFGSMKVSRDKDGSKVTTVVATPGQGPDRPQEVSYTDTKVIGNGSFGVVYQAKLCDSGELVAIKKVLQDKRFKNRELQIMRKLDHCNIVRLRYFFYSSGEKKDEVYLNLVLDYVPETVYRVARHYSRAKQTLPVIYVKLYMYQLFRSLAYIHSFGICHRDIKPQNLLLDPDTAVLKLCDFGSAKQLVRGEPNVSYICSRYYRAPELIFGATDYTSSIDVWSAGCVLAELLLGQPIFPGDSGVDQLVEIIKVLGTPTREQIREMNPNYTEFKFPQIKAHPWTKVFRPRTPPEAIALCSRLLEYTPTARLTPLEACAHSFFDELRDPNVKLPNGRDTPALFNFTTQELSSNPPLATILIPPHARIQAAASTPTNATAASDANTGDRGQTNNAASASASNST
CDK1/cyclin B, sequence (P06493 whole entry, species assumed): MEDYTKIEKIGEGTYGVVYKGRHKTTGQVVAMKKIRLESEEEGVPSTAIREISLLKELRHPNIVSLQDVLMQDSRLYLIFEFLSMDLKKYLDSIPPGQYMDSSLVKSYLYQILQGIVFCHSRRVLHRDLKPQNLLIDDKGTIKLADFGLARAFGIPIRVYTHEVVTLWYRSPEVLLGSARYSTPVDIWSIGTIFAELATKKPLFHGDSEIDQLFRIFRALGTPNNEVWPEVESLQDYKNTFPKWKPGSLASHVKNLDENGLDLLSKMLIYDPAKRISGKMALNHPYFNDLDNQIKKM
CDK1/cyclin B, sequence (P14635 whole entry partner, species assumed): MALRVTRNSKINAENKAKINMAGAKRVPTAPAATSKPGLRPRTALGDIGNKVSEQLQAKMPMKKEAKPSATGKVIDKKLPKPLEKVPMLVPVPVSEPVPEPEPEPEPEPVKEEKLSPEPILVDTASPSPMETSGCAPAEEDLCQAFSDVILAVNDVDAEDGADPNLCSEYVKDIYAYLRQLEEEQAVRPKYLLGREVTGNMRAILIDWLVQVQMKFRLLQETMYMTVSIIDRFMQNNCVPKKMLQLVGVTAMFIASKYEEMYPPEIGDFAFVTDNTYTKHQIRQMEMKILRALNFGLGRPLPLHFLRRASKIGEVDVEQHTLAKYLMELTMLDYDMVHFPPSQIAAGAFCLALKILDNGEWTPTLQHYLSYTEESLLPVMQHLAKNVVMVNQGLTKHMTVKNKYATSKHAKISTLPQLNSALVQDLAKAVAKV

Turning to `CCN(C(C)=O)c1cccc(-c2ccnc(Nc3ccc(OC)cc3)n2)c1` [Compound 23, N-Ethyl-N-{3-[2-(4-methoxy-phenylamino)-pyrimidin-4-yl]-phenyl}-acetamide], the IC50 at CDK2/cyclin E stood at 1100 nM; with HT29, 3400 nM; on CDK4/cyclin D1, 7600 nM; with A549 it was 12900 nM; in the test on Saos-2 it was 23000 nM; at CDK1/cyclin B, 3600 nM. Further, the IC50 at CDK7/cyclin H is 4300 nM; on GSK3β it was 120 nM; in test [1] it was 13100 ± 9800 nM; at CDK2/cyclin A, 1200 nM; on CDK9/cyclin T1 it was 400 nM.
As to `CCNc1cccc(-c2ccnc(Nc3ccc(OC)cc3)n2)c1` [Compound 25, [4-(3-Ethylamino-phenyl)-pyrimidin-2-yl]-(4-methoxy-phenyl)-amine], the IC50 was 39 nM at CDK2/cyclin E; 170 nM on CDK4/cyclin D1; 170 nM at CDK1/cyclin B; 940 nM on CDK7/cyclin H; 140 nM on GSK3β; 30 nM on CDK2/cyclin A. The IC50 on CDK9/cyclin T1 was 5 nM.
Take `Oc1cccc(Nc2nccc(-c3cccc(CNCc4ccccc4)c3)n2)c1` [Compound 28, 3-{4-[3-(Benzylamino-methyl)-phenyl]-pyrimidin-2-ylamino}-phenol]: the IC50 at CDK2/cyclin E was found to be 860 nM; in the test with HT29, 16000 nM; on CDK4/cyclin D1, 2600 nM; in the test on A549, 8000 nM; with Saos-2, 7100 nM; at CDK1/cyclin B, 2100 nM. Also, the IC50 at CDK7/cyclin H is 2600 nM; at GSK3β, 120 nM; in [1] it was 10400 ± 4900 nM; at CDK2/cyclin A, 1000 nM; on CDK9/cyclin T1 it was 35 nM.
Consider `O=[N+]([O-])c1cccc(Nc2nccc(-c3cccc(Cn4ccnc4)c3)n2)c1` [Compound 29, [4-(3-Imidazol-1-ylmethyl-phenyl)-pyrimidin-2-yl]-(3-nitro-phenyl)-amine], for which the IC50 at CDK2/cyclin E was found to be 140 nM; in the test with HT29 it was 1800 nM; on CDK4/cyclin D1, 62000 nM; with A549, 3600 nM; with Saos-2 it was 4500 nM; on CDK1/cyclin B it was 2200 nM. Further, the IC50 was found to be 71 nM on CDK7/cyclin H; 50 nM on GSK3β; 3300 ± 1400 nM in test [1]; 5100 nM on CDK2/cyclin A; 44 nM at CDK9/cyclin T1.
On to `Oc1cccc(Nc2nccc(-c3cccc(Cn4cncn4)c3)n2)c1` [Compound 34, 3-[4-(3-[1,2,4]triazol-1-ylmethyl-phenyl)-pyrimidin-2-ylamino]-phenol], for which the IC50 at CDK2/cyclin E came to 240 nM; with HT29, 8300 nM; at CDK4/cyclin D1, 1800 nM; in the test on A549, 4100 nM; in the test with Saos-2 it was 3700 nM; at CDK1/cyclin B, 7000 nM. The IC50 worked out at 1200 nM at CDK7/cyclin H; 41 nM at GSK3β; 5400 ± 2500 nM in test [1]; 2400 nM on CDK2/cyclin A; 130 nM at CDK9/cyclin T1.
For the molecule `O=[N+]([O-])c1cccc(Nc2nccc(-c3cccc(CN4CCOCC4)c3)n2)c1` [Compound 39, [4-(3-Morpholin-4-ylmethyl-phenyl)-pyrimidin-2-yl]-(3-nitro-phenyl)-amine], the IC50 amounted to 120 nM at CDK2/cyclin E; 2000 nM in the test with HT29; 2410 nM on CDK4/cyclin D1; 6800 nM with A549; 8000 nM in the test with Saos-2; 350 nM at CDK1/cyclin B. Besides, the IC50 on CDK7/cyclin H turned out to be 38 nM; at GSK3β it was 150 nM; in test [1] it was 5600 ± 3200 nM; at CDK2/cyclin A it was 2400 nM; at CDK9/cyclin T1, 110 nM.
Take `CCN(Cc1cccc(-c2ccnc(Nc3ccc(OC)nc3)n2)c1)C(C)C` [Compound 53, (4-{3-[(Ethyl-isopropyl-amino)-methyl]-phenyl}-pyrimidin-2-yl)-(6-methoxy-pyridin-3-yl)-amine]: the IC50 on CDK2/cyclin E is 350 nM; with HT29, 850 nM; at CDK4/cyclin D1, 1100 nM; in the test with A549, 2200 nM; in the test with Saos-2, 3200 nM; on CDK1/cyclin B, 3900 nM. Besides, the IC50 amounted to 2500 nM on CDK7/cyclin H; 51 nM at GSK3β; 2100 ± 1200 nM in [1]; 3400 nM on CDK2/cyclin A; 28 nM at CDK9/cyclin T1.
On to `CN1CCN(Cc2cccc(-c3ccnc(Nc4cccc([N+](=O)[O-])c4)n3)c2)CC1` [Compound 54, {4-[3-(4-Methyl-piperazin-1-ylmethyl)-phenyl]-pyrimidin-2-yl}-(3-nitro-phenyl)-amine], for which the IC50 on CDK2/cyclin E stood at 300 nM; with HT29, 770 nM; on CDK4/cyclin D1, 4500 nM; in the test on A549 it was 1100 nM; in the test with Saos-2 it was 1300 nM; on CDK1/cyclin B it was 2000 nM. Besides, the IC50 worked out at 130 nM at CDK7/cyclin H; 320 nM on GSK3β; 1100 ± 300 nM in test [1]; 820 nM on CDK2/cyclin A; 22 nM on CDK9/cyclin T1.
Take `COc1ccc(Nc2nccc(-c3cccc(Cn4ccnc4)c3)n2)cn1` [Compound 59, [4-(3-Imidazol-1-ylmethyl-phenyl)-pyrimidin-2-yl]-(6-methoxy-pyridin-3-yl)-amine]: the IC50 at CDK2/cyclin E was found to be 1300 nM; at CDK4/cyclin D1 it was 3800 nM; at CDK1/cyclin B, 120 nM; at CDK7/cyclin H it was 500 nM; at GSK3β, 70 nM; on CDK2/cyclin A, 60 nM. For the same molecule, the IC50 on CDK9/cyclin T1 turned out to be 40 nM.
Consider `CN(C)Cc1cccc(-c2ccnc(Nc3cccc([N+](=O)[O-])c3)n2)c1` [Compound 71, [4-(3-Dimethylaminomethyl-phenyl)-pyrimidin-2-yl]-(3-nitro-phenyl)-amine], for which the IC50 on CDK2/cyclin E turned out to be 10 nM; at CDK4/cyclin D1, 200 nM; on CDK1/cyclin B, 10 nM; on CDK7/cyclin H, 30 nM; on GSK3β, 30 nM; at CDK2/cyclin A it was 30 nM. Further, on CDK9/cyclin T1, the IC50 is 3 nM.
Take `O=[N+]([O-])c1cccc(Nc2nccc(-c3cccc(CN4CCCCC4CO)c3)n2)c1` (centres unmarked) [Compound 79, (1-{3-[2-(3-Nitro-phenylamino)-pyrimidin-4-yl]-benzyl}-piperidin-2-yl)-methanol]: the IC50 on CDK2/cyclin E is less than 1 nM; in the test with HT29, 200 nM; at CDK4/cyclin D1 it was 540 nM; in the test with A549 it was 330 nM; with Saos-2 it was 620 nM; at CDK1/cyclin B it was 150 nM. For the same molecule, the IC50 at CDK7/cyclin H came to 50 nM; on GSK3β, 20 nM; in [1] it was 400 ± 200 nM; on CDK2/cyclin A, 150 nM; on CDK9/cyclin T1 it was 10 nM.
For `Cc1ccc(Nc2nccc(-c3cccc(CN4CCCCC4CO)c3)n2)cc1[N+](=O)[O-]` (centres unmarked) [Compound 108, (1-{3-[2-(4-Methyl-3-nitro-phenylamino)-pyrimidin-4-yl]-benzyl}-piperidin-2-yl)-methanol], the IC50 at CDK2/cyclin E was found to be 60 nM; on CDK4/cyclin D1 it was 1700 nM; on CDK1/cyclin B, 1100 nM; at CDK7/cyclin H, 30 nM; on GSK3β, 20 nM; at CDK2/cyclin A, 440 nM. In addition, the IC50 on CDK9/cyclin T1 was less than 1 nM.

The values above are taken from patent US20070021419A1, “2-Aminophenyl-4-phenylpyrimidines as kinase inhibitors” (Cyclacel Limited, priority 2003, published 2007).
